Among the data in patent publication US20220274965A1, “ANTIVIRAL AGENTS AND USES THEREOF” (GRIFFITH UNIVERSITY, priority 2019, published 2022) are IC50 values, retold here.

Assay [1] concerns hPIV-3 strain CI002 (clinical isolate). Briefly: Haemagglutination inhibition (HI) assay with human red blood cells. In kind it is biochemical. The conditions noted are these: hPIV3 CI002.
In assay [2] the test system is hPIV-3 strain JS. In words: In situ ELISA virus growth inhibition in LLC-MK2 cells. The assay is classed as cell-based. The conditions noted are these: Human respirovirus 3, LLC-MK2; hPIV3 JS.
The subject of assay [3] is hPIV-3 strain JS. Briefly: Haemagglutination inhibition (HI) assay with human red blood cells. The conditions noted are these: hPIV3 JS. The assay is classed as biochemical.
In assay [4] the test system is hPIV-3 strain C243. In words: In situ ELISA virus growth inhibition in LLC-MK2 cells. The conditions noted are these: Human respirovirus 3, LLC-MK2. The assay is classed as cell-based.
The next assay deals with hPIV-1 strain C35. Briefly: Haemagglutination inhibition (HI) assay with human red blood cells. The assay is classed as biochemical. The conditions noted are these: hPIV1 C35.
Assay [5] has as its target hPIV-3 strain C243 neuraminidase (UniProt P08492, species not given/STRAIN_C243). The assay is classed as biochemical.
Assay [6] has as its system hPIV-3 strain C243. In words: Haemagglutination inhibition (HI) assay with human red blood cells. The assay is classed as biochemical. Particulars: hPIV3 C243.
Assay [7] deals with hPIV-3 strain CI002 (clinical isolate) neuraminidase (UniProt P08492, species not given/STRAIN_CI002). In kind it is biochemical. The conditions noted are these: hPIV3 CI002; read-out: NI IC50.
The mark [8] stands for this setting: hPIV3 C243, Table 2, read-out: NI IC50.
[9] abbreviates: hPIV-3 strain C243, Table 1, read-out: NI (IC50).

Molecules are shown by their SMILES. Like-named read-outs stand apart in the source and are kept apart here.

Sequence of hPIV-3 strain C243 neuraminidase (P08492 whole entry, change not shown): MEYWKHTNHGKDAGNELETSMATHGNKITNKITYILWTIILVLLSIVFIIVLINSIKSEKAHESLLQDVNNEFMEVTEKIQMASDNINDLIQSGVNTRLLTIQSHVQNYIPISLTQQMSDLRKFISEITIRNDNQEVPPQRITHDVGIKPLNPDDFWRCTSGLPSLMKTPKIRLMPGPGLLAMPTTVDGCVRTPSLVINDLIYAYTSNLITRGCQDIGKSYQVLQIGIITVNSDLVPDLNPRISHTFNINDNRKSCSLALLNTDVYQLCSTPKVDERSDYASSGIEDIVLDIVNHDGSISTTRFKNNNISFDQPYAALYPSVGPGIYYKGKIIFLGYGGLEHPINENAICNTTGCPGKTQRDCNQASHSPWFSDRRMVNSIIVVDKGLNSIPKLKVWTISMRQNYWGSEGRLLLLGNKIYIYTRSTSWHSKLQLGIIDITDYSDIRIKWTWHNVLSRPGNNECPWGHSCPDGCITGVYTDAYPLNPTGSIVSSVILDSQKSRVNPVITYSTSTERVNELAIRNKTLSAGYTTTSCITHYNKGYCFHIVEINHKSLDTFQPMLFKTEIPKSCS
Sequence of hPIV-3 strain CI002 (clinical isolate) neuraminidase (P08492 whole entry, change not shown): as above

Turning to `CC(=O)Nc1ccccc1-c1cn([C@H]2C=C(C(=O)O)O[C@@H]([C@H](O)[C@H](O)CO)[C@@H]2NC(C)=O)nn1`, the IC50 is > 200 µM in assay [1]; 406 µM with hPIV-3 strain JS [2]; 40 µM in the assay on hPIV-3 strain JS [3]; 126 µM with hPIV-3 strain C243 [4] (hPIV3 C243, Table 2); > 200 µM with hPIV-1 strain C35.
For the compound `CC(=O)N[C@H]1[C@H]([C@H](O)[C@H](O)CO)OC(C(=O)O)=C[C@@H]1n1cc(-c2ccccc2NC(=O)c2cccc(OC(F)(F)F)c2)nn1`, the half-inhibitory concentration (IC50) is 47.4 µM in assay [5] (setting [8]); > 200 µM in assay [1]; > 500 µM in the assay with hPIV-3 strain JS [2]; > 200 µM in the assay on hPIV-3 strain C243 [6]; > 250 µM in the assay with hPIV-3 strain JS [3]; 217 µM with hPIV-3 strain C243 [4] (hPIV3 C243, Table 2).
Take `COc1c(F)c(F)cc(C(=O)Nc2ccccc2-c2cn([C@H]3C=C(C(=O)O)O[C@@H]([C@H](O)[C@H](O)CO)[C@@H]3NC(C)=O)nn2)c1F`: the half-inhibitory concentration (IC50) is 32.8 µM in assay [5] (setting [8]); 764 µM in the assay with hPIV-3 strain JS [2]; > 250 µM in the assay with hPIV-3 strain JS [3]; 177 µM in the assay with hPIV-3 strain C243 [4] (hPIV3 C243, Table 2); > 200 µM with hPIV-1 strain C35.
`CC(=O)N[C@H]1[C@H]([C@H](O)[C@H](O)CO)OC(C(=O)O)=C[C@@H]1n1cc(-c2ccccc2NC(=O)CNC(=O)c2ccccc2)nn1`: the IC50 in assay [1] is > 200 µM; in the assay with hPIV-3 strain JS [2] it was 340 µM; in the assay on hPIV-3 strain JS [3], 20 µM; in the assay on hPIV-1 strain C35, > 200 µM.
For `CC(=O)N[C@H]1[C@H]([C@H](O)[C@H](O)CO)OC(C(=O)O)=C[C@@H]1n1cc(-c2ccccc2NC(=O)CNC(=O)c2ccc(N(C)C)cc2)nn1`, the 50% inhibitory concentration (IC50) was > 200 µM in assay [1], 355 µM with hPIV-3 strain JS [2], 14 µM with hPIV-3 strain JS [3] and > 200 µM in the assay with hPIV-1 strain C35.
Take `CC(=O)N[C@H]1[C@H]([C@H](O)[C@H](O)CO)OC(C(=O)O)=C[C@@H]1n1cc(-c2ccccc2NC(=O)CNC(=O)c2ccc(-c3ccccc3)cc2)nn1`: the 50% inhibitory concentration (IC50) was 44.5 µM in assay [1]; 60.7 µM in the assay with hPIV-3 strain JS [2]; 6.4 µM in the assay with hPIV-3 strain JS [3]; 23.7 µM in the assay with hPIV-3 strain C243 [4] (hPIV3 C243, Table 2); > 200 µM in the assay on hPIV-1 strain C35.
For the compound `CC(=O)N[C@H]1[C@H]([C@H](O)[C@H](O)CO)OC(C(=O)O)=C[C@@H]1n1cc(-c2ccccc2NC(=O)CCNC(=O)C2CC2)nn1`, the IC50 in assay [5] (setting [8]) was 30.2 µM; in assay [1] it was > 200 µM; with hPIV-3 strain JS [2] it was 602 µM; with hPIV-3 strain C243 [6], > 200 µM; in the assay on hPIV-3 strain JS [3], > 250 µM; in the assay with hPIV-3 strain C243 [4] (hPIV3 C243, Table 2) it was 104 µM.
`O=C(O)C1=C[C@H](n2cc3c(Br)cccc3n2)[C@@H](NC(=O)C(F)(F)F)[C@H]([C@H](O)[C@H](O)CO)O1`: the IC50 came to 3.95 µM in assay [5] (setting [8]), 7.41 µM in assay [1], 8.87 µM in assay [7] and 4.94 µM with hPIV-1 strain C35.
Take `N#Cc1ccc2nn([C@H]3C=C(C(=O)O)O[C@@H]([C@H](O)[C@H](O)CO)[C@@H]3NC(=O)C(F)(F)F)cc2c1`: the IC50 was 47.9 µM in assay [5] (setting [8]); > 200 µM in assay [1]; 143 µM in assay [7]; 133 µM in the assay on hPIV-3 strain JS [3]; 66.7 µM in the assay with hPIV-1 strain C35.
In the same order, the values of `N#Cc1ccc2cn([C@H]3C=C(C(=O)O)O[C@@H]([C@H](O)[C@H](O)CO)[C@@H]3NC(=O)C(F)(F)F)nc2c1` are 49.8 µM, > 200 µM, 208 µM, > 200 µM and > 200 µM.
The corresponding values for `CC(C)C(=O)N[C@H]1[C@H]([C@H](O)[C@H](O)CO)OC(C(=O)O)=C[C@@H]1n1cc2ccc(C(=O)O)cc2n1` are 211 µM, > 200 µM, 378 µM, > 200 µM and > 200 µM.
As to `CC(=O)N[C@H]1[C@H]([C@H](O)[C@H](O)CO)OC(C(=O)O)=C[C@@H]1n1cc(-c2ccccc2NC(=O)CCNS(=O)(=O)Cc2ccccc2)nn1`, the IC50 was 21.2 µM in assay [5] (setting [8]); > 200 µM in assay [1]; 53.9 µM in assay [7]; > 200 µM in the assay with hPIV-3 strain JS [3]; > 200 µM in the assay with hPIV-1 strain C35.
For the compound `O=C(O)C1=C[C@H](n2cc3ccc(F)cc3n2)[C@@H](NC(=O)C(F)(F)F)[C@H]([C@H](O)[C@H](O)CO)O1`, the IC50 amounted to 12.9 µM in assay [5] (setting [8]), 22.2 µM in assay [1], 103 µM in assay [7] and 133 µM in the assay on hPIV-1 strain C35.
Regarding `COc1ccc(OC)c2nn([C@H]3C=C(C(=O)O)O[C@@H]([C@H](O)[C@H](O)CO)[C@@H]3NC(=O)C(F)(F)F)cc12`, the half-inhibitory concentration (IC50) was found to be 11.2 µM in assay [5] (setting [8]), 74.2 µM in assay [7] and 14.8 µM in the assay on hPIV-3 strain C243 [6].
With `O=C(O)C1=C[C@H](n2cc3cc4c(cc3n2)OCO4)[C@@H](NC(=O)C(F)(F)F)[C@H]([C@H](O)[C@H](O)CO)O1`, the IC50 in assay [5] (setting [8]) was found to be 12.9 µM; in assay [1], 66.7 µM; in assay [7], 38.9 µM; in the assay on hPIV-3 strain C243 [6], 14.8 µM; with hPIV-1 strain C35, 133 µM.
As for `CC(C)C(=O)N[C@H]1[C@H]([C@H](O)[C@H](O)CO)OC(C(=O)O)=C[C@@H]1n1cc2cc(C(=O)O)ccc2n1`, the IC50 in assay [5] (setting [8]) was 230 µM; in assay [7], 163 µM; in the assay on hPIV-3 strain C243 [6], > 200 µM.
As for `CC(=O)N[C@H]1[C@H]([C@H](O)[C@H](O)CO)OC(C(=O)O)=C[C@@H]1n1cc2ccc3ccccc3c2n1` [IE1530-65], in assay [5] (setting [9]), the IC50 worked out at 10.2 µM.
Same read-out and setting: the value for `CC(=O)N[C@H]1[C@H]([C@H](O)[C@H](O)CO)OC(C(=O)O)=C[C@@H]1n1cc2ccccc2n1` [IE1530-66] was 92.8 µM; that for `O=C(O)C1=C[C@H](n2cc3ccc4ccccc4c3n2)[C@@H](NC(=O)C(F)(F)F)[C@H]([C@H](O)[C@H](O)CO)O1` [IE1530-69] was 2.84 µM.
As for `O=C(O)C1=C[C@H](n2cc3ccccc3n2)[C@@H](NC(=O)C(F)(F)F)[C@H]([C@H](O)[C@H](O)CO)O1` [IE1530-74, Sodium 2,6-anhydro-3,4,5-trideoxy-4-(2H-indazol-2-yl)-5-(2,2,2-trifluoroacetamido)-D-glycero-D-galacto-non-2-enonate], the IC50 in assay [5] (setting [9]) was determined as 9.37 µM.
`CC(=O)N[C@H]1[C@H]([C@H](O)[C@H](O)CO)OC(C(=O)O)=C[C@@H]1n1cc(-c2ccccc2NS(C)(=O)=O)nn1` [IE1778-12]: the IC50 in assay [5] (setting [9]) stood at 29.1 µM.
`CC(=O)N[C@H]1[C@H]([C@H](O)[C@H](O)CO)OC(C(=O)O)=C[C@@H]1n1cc(-c2ccccc2NC(=O)CO)nn1` [IE1778-25]: the IC50 in assay [5] (setting [9]) came out at 27.9 µM.
In the case of `CC(=O)N[C@H]1[C@H]([C@H](O)[C@H](O)CO)OC(C(=O)O)=C[C@@H]1n1nnc2c3ccccc3ccc21` [IE1778-64], the concentration for half-maximal inhibition (IC50) in assay [5] (setting [9]) was determined as 4.13 µM.
On to `O=C(O)C1=C[C@H](n2nnc3c4ccccc4ccc32)[C@@H](NC(=O)C(F)(F)F)[C@H]([C@H](O)[C@H](O)CO)O1` [IE1778-74], for which the IC50 in assay [5] (setting [9]) worked out at 0.568 µM; in the assay with hPIV-3 strain C243 [4] (hPIV-3 strain C243, Table 1), 1.87 µM.
With `CC(=O)N[C@H]1[C@H]([C@H](O)[C@H](O)CO)OC(C(=O)O)=C[C@@H]1n1cc(-c2ccccc2NC(=O)CCCCCCCCCCC(=O)Nc2ccccc2-c2cn([C@H]3C=C(C(=O)O)O[C@@H]([C@H](O)[C@H](O)CO)[C@@H]3NC(C)=O)nn2)nn1` [IE1826-01], the 50% inhibitory concentration (IC50) in assay [5] (setting [9]) was 8.09 µM; in the assay on hPIV-3 strain C243 [4] (hPIV-3 strain C243, Table 1), 17.9 µM.
Consider `CC(=O)N[C@@H]1[C@@H]([C@@H](O)[C@@H](O)CO)OC(C(=O)O)=C[C@H]1n1cc(-c2ccccc2NC(=O)CCCCCn2cc(CCCc3cn(CCCCCC(=O)Nc4ccccc4-c4cn([C@H]5C=C(C(=O)O)O[C@@H]([C@H](O)[C@H](O)CO)[C@@H]5NC(C)=O)nn4)nn3)nn2)nn1` [IE1826-14], for which the IC50 in assay [5] (setting [9]) stood at 8.22 µM.
On the same count and under the same terms, the value for `CC(=O)N[C@H]1[C@H]([C@H](O)[C@H](O)CO)OC(C(=O)O)=C[C@@H]1n1cc(-c2ccccc2NC(=O)CCCCCN=[N+]=[N-])nn1` [IE1826-23] was 69.2 µM; that for `CC(=O)N[C@@H]1[C@@H]([C@@H](O)[C@@H](O)CO)OC(C(=O)O)=C[C@H]1n1cc(-c2ccccc2NC(=O)CCCCc2cn(CCCCCC(=O)Nc3ccccc3-c3cn([C@H]4C=C(C(=O)O)O[C@@H]([C@H](O)[C@H](O)CO)[C@@H]4NC(C)=O)nn3)nn2)nn1` [IE1826-28] was 14 µM; that for `CC(=O)N[C@H]1[C@H]([C@H](O)[C@H](O)CO)OC(C(=O)O)=C[C@@H]1n1cc(-c2ccccc2NC(=O)CCCCCn2cc(-c3ccccc3)nn2)nn1` [IE1826-30] was 24.3 µM.
Turning to `CC(=O)N[C@H]1[C@H]([C@H](O)[C@H](O)CO)OC(C(=O)O)=C[C@@H]1n1cc(-c2ccccc2NC(=O)CCCCCn2cc(C(=O)O)nn2)nn1` [IE1826-34], the 50% inhibitory concentration (IC50) in assay [5] (setting [9]) stood at 16.7 µM.
`COCc1cn(CCCCCC(=O)Nc2ccccc2-c2cn([C@H]3C=C(C(=O)O)O[C@@H]([C@H](O)[C@H](O)CO)[C@@H]3NC(C)=O)nn2)nn1` [IE1826-38]: the half-inhibitory concentration (IC50) in assay [5] (setting [9]) is 24.2 µM.
Regarding `CC(=O)N[C@H]1[C@H]([C@H](O)[C@H](O)CO)OC(C(=O)O)=C[C@@H]1n1cc(-c2ccccc2NC(=O)CCCCCn2cc(CO)nn2)nn1` [IE1826-44], the IC50 in assay [5] (setting [9]) was 47.2 µM.
With `CC(=O)N[C@H]1[C@H]([C@H](O)[C@H](O)CO)OC(C(=O)O)=C[C@@H]1n1cc(-c2ccccc2NS(C)(=O)=O)nn1` [drawing 111], the IC50 is 60 µM in assay [1], 28 µM with hPIV-3 strain JS [3] and > 200 µM in the assay on hPIV-1 strain C35.
